Source: ChEMBL document CHEMBL1147604, “Dipeptidyl aspartyl fluoromethylketones as potent caspase-3 inhibitors: SAR of the P2 amino acid” (Bioorg Med Chem Lett, 2004)

Experiments:
Cathepsin B = Cathepsin B (Homo sapiens, UniProt P07858); test: Compound was evaluated for its inhibitory activity against Cathepsin B
Caspase-1 = molecular target: T1, Caspase-1 (Homo sapiens, UniProt P29466); test: Compound was evaluated for its inhibitory activity against the Caspase-1 enzyme
T1 sequence (P29466 whole entry): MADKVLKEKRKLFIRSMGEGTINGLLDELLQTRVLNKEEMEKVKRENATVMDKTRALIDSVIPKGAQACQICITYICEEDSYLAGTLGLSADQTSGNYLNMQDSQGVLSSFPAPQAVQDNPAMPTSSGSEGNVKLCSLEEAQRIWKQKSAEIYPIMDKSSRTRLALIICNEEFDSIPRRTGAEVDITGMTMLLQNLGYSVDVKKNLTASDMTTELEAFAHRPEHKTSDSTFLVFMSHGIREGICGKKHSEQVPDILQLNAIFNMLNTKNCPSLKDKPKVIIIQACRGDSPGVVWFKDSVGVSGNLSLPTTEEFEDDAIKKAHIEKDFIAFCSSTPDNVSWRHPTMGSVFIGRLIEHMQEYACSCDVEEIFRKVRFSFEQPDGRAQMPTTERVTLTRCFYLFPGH

Coagulation factor X = Coagulation factor X (Homo sapiens, UniProt P00742); test: Compound was evaluated for its inhibitory activity against the Coagulation factor X
Chain of Coagulation factor X (P00742 41-179 limits assumed): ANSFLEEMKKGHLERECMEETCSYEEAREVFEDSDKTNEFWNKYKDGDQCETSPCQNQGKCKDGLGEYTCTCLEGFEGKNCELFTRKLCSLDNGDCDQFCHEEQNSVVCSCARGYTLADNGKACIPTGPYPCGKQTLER
Chain of Coagulation factor X (P00742 235-488 limits assumed): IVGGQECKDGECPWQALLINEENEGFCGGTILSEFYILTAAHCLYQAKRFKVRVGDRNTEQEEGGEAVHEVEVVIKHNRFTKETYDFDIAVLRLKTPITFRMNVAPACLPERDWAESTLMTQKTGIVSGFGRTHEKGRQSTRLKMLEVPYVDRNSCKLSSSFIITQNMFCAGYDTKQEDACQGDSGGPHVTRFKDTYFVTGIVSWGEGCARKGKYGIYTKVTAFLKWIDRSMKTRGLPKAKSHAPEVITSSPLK

Prothrombin = Prothrombin (Homo sapiens, UniProt P00734); test: Compound was evaluated for its inhibitory activity against the Thrombin
Caspase-3 = molecular target: T2, Caspase-3 (Homo sapiens, UniProt P42574); test: Inhibitory activity against human recombinant Caspase-3 enzyme
T2 sequence (P42574 whole entry): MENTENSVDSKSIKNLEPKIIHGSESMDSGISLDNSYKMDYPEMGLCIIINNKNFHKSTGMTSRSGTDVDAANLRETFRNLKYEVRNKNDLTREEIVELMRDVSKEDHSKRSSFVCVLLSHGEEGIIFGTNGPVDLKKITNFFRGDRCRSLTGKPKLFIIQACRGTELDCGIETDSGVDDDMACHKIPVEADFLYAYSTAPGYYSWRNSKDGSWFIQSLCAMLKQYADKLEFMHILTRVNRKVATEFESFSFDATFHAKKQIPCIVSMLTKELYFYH

[1] = molecular target: T3, Calpain-1 catalytic subunit (Homo sapiens, UniProt P07384); test: Compound was evaluated for its inhibitory activity against the Calpain-1 enzyme
T3 sequence (P07384 whole entry): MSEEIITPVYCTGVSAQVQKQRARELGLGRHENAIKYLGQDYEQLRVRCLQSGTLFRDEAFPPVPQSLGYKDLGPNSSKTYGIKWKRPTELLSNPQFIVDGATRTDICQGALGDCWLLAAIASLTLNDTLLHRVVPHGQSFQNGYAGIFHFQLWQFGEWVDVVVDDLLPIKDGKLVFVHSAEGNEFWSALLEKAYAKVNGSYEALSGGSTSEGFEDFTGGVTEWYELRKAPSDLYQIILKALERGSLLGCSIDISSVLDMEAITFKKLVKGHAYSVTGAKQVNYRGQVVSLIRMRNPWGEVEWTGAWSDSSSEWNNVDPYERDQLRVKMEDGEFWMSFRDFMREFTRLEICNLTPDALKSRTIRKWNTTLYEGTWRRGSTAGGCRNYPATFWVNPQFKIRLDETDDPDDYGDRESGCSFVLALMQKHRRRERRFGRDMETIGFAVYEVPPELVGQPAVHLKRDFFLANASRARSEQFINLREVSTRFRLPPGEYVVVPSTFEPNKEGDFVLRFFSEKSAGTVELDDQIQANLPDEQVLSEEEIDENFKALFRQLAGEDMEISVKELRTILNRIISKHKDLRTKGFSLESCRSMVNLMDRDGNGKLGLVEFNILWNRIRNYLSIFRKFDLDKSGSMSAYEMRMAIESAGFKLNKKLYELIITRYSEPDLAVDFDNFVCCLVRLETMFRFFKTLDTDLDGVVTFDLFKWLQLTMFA

[2] = molecular target: T3, Calpain-1 catalytic subunit; test: Compound was evaluated for its inhibitory activity against the Calpain 1 enzyme
Caspase-6 = molecular target: T4, Caspase-6 (Homo sapiens, UniProt P55212); test: Compound was evaluated for its inhibitory activity against the Caspase-6 enzyme
T4 sequence (P55212 whole entry): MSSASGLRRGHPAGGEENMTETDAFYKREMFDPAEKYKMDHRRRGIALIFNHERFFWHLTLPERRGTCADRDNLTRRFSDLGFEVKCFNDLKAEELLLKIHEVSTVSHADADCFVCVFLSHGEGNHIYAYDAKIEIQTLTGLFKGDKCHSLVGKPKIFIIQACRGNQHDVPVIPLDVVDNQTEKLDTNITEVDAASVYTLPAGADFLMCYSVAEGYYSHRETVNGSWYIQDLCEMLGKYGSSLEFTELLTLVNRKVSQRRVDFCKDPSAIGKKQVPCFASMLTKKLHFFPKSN

Caspase-9 = molecular target: T5, Caspase-9 (Homo sapiens, UniProt P55211); test: Compound was evaluated for its inhibitory activity against the Caspase-9 enzyme
T5 sequence (P55211 whole entry): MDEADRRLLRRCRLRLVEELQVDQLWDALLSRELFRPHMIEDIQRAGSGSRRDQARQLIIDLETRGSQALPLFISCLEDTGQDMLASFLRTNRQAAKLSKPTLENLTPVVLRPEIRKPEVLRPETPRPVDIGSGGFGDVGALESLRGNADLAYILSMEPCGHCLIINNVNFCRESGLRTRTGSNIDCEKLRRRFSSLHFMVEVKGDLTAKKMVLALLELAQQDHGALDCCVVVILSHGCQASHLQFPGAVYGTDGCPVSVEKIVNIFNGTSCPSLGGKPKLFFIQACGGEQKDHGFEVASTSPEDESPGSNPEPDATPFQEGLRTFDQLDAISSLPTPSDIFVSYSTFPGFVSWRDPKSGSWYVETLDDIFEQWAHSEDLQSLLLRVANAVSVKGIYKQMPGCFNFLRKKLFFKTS

Caspase-7 = molecular target: T6, Caspase-7 (Homo sapiens, UniProt P55210); test: Compound was evaluated for its inhibitory activity against the Caspase-7 enzyme
T6 sequence (P55210 whole entry): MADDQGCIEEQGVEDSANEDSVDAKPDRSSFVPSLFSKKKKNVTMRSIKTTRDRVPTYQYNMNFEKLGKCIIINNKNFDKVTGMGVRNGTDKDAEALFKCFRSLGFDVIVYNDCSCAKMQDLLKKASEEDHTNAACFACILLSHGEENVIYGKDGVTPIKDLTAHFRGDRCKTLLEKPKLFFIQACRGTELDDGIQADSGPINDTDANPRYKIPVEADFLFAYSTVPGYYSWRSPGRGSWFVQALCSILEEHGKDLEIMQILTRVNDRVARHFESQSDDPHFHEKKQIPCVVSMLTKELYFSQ

Caspase-8 = Caspase-8 (Homo sapiens, UniProt Q14790); test: Compound was evaluated for its inhibitory activity against the Caspase-8 enzyme
Chain of Caspase-8 (Q14790 217-374 limits assumed): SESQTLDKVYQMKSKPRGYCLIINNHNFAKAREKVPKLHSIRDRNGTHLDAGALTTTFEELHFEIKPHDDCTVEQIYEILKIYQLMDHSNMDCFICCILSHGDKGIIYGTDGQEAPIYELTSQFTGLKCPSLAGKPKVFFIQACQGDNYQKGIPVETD
Chain of Caspase-8 (Q14790 385-479 limits assumed): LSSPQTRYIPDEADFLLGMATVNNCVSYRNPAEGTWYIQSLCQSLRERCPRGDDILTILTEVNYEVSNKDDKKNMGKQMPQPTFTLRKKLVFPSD

IC50 (Cathepsin B) [nM] | IC50 (Caspase-1) [nM] | IC50 (Coagulation factor X) [nM] | IC50 (Prothrombin) [nM] | IC50 (Caspase-3) [nM] | IC50 [1] [nM] | IC50 [2] [nM] | IC50 (Caspase-6) [nM] | IC50 (Caspase-9) [nM] | IC50 (Caspase-7) [nM] | IC50 (Caspase-8) [nM] | SMILES
300 | 900 | > 100000 | > 100000 | 1100 | 120 | – | – | – | – | – | COC(=O)CC(NC(=O)[C@@H](NC(=O)OCc1ccccc1)C(C)C)C(=O)CF (stereo partly specified)
> 10000 | 20 | > 100000 | > 100000 | 30 | – | > 10000 | 18 | 5 | 7 | 7 | CC(C)[C@H](NC(=O)OCc1ccccc1)C(=O)NC(CC(=O)O)C(=O)CF (stereo partly specified)
